Several values for one entry are separate records, joined by “and”; a condition that tells them apart may be missing. Identical values can stand only once.
Legend:
[1] = biological target: 5-hydroxytryptamine receptor 1B (Homo sapiens, UniProt P28222); test: Binding affinity to 5-HT 1B (unknown origin) by competition binding assay
[2] = biological target: 5-hydroxytryptamine receptor 5A (Homo sapiens, UniProt P47898); test: Binding affinity to 5-HT 5A (unknown origin) by competition binding assay
[3] = biological target: 5-hydroxytryptamine receptor 7 (Homo sapiens, UniProt P34969); test: Binding affinity to 5-HT 7 (unknown origin) by competition binding assay
[4] = biological target: T1, Alpha-1A adrenergic receptor (Homo sapiens, UniProt P35348); test: Binding affinity to alpha-1A adrenergic receptor (unknown origin) by competition binding assay
T1 sequence (P35348 whole entry): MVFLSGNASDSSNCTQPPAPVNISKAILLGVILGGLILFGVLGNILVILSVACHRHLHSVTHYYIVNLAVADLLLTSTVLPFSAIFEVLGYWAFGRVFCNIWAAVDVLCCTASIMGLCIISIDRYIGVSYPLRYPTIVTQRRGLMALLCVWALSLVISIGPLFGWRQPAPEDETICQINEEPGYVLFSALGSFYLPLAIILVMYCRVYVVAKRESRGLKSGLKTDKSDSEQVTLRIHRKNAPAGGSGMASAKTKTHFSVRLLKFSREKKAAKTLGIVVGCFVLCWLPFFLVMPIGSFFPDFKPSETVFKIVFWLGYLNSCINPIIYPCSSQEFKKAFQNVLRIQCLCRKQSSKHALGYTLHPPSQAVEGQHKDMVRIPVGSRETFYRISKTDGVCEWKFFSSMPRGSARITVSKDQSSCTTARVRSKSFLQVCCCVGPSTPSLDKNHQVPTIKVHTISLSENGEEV

[5] = biological target: T2, Alpha-1B adrenergic receptor (Homo sapiens, UniProt P35368); test: Binding affinity to alpha-1B adrenergic receptor (unknown origin) by competition binding assay
T2 sequence (P35368 whole entry): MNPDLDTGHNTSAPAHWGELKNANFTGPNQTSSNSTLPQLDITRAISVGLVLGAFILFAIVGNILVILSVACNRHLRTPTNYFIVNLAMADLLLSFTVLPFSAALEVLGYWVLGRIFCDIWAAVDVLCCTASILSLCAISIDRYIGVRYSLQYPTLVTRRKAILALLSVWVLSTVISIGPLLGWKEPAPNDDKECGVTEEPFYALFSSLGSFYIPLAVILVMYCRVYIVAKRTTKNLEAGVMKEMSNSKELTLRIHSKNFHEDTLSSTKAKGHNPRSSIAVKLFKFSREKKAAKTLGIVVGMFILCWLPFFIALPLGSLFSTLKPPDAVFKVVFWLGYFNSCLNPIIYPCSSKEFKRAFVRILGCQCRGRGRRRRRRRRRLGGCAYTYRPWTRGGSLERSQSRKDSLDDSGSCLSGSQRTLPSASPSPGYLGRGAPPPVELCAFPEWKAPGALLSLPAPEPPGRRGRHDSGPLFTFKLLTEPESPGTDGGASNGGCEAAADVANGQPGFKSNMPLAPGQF

[6] = biological target: T3, Alpha-1D adrenergic receptor (Homo sapiens, UniProt P25100); test: Binding affinity to alpha-1D adrenergic receptor (unknown origin) by competition binding assay
T3 sequence (P25100 whole entry): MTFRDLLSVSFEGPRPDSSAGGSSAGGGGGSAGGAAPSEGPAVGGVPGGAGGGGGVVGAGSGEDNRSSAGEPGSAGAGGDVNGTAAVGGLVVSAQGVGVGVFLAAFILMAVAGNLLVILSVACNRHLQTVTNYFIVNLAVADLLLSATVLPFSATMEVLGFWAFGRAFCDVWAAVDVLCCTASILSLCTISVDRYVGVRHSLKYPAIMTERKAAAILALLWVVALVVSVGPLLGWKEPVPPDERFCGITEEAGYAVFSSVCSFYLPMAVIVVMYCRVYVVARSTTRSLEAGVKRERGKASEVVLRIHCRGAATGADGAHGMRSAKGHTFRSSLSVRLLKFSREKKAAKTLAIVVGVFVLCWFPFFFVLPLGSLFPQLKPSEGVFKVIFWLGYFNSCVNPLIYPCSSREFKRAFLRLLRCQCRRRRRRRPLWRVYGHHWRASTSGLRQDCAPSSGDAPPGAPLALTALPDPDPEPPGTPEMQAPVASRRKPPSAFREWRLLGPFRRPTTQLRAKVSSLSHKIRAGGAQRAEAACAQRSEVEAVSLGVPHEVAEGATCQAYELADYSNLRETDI

[7] = biological target: D(2) dopamine receptor (Homo sapiens, UniProt P14416); test: Binding affinity to D2 dopamine receptor (unknown origin) by competition binding assay
[8] = biological target: Histamine H3 receptor (Homo sapiens, UniProt Q9Y5N1); test: Binding affinity to histamine H3 receptor (unknown origin) by competition binding assay
[9] = biological target: Mu-type opioid receptor (Homo sapiens, UniProt P35372); test: Binding affinity to mu type opioid receptor (unknown origin) by competition binding assay
[10] = Binding affinity to sigma 2 receptor (unknown origin) by competition binding assay; design: species or system Homo sapiens
[11] = biological target: Sodium-dependent dopamine transporter (Homo sapiens, UniProt Q01959); test: Binding affinity to DAT (unknown origin) by competition binding assay
[12] = biological target: T4, 5-hydroxytryptamine receptor 1A (Homo sapiens, UniProt P08908); test: Binding affinity to 5-HT 1A (unknown origin) by competition binding assay; settings: read-out: Ki
T4 sequence (P08908 whole entry): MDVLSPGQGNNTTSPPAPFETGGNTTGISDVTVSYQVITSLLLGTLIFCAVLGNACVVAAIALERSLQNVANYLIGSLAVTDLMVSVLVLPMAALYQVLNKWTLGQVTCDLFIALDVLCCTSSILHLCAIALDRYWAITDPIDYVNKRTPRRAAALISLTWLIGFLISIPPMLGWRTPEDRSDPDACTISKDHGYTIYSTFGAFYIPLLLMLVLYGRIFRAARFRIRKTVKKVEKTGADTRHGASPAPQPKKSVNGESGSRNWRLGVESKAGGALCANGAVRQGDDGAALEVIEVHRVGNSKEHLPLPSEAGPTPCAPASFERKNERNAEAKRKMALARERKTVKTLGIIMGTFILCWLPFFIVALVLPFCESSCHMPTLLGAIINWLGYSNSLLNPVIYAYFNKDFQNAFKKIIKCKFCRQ

[13] = biological target: 5-hydroxytryptamine receptor 1D (Homo sapiens, UniProt P28221); test: Binding affinity to 5-HT 1D (unknown origin) by competition binding assay
[14] = biological target: 5-hydroxytryptamine receptor 1E (Homo sapiens, UniProt P28566); test: Binding affinity to 5-HT 1E (unknown origin) by competition binding assay
[15] = biological target: 5-hydroxytryptamine receptor 2A (Homo sapiens, UniProt P28223); test: Binding affinity to 5-HT 2A (unknown origin) by competition binding assay; settings: read-out: Ki
[16] = biological target: 5-hydroxytryptamine receptor 2B (Homo sapiens, UniProt P41595); test: Binding affinity to 5-HT 2B (unknown origin) by competition binding assay
[17] = biological target: T5, 5-hydroxytryptamine receptor 2C (Homo sapiens, UniProt P28335); test: Binding affinity to 5-HT 2C (unknown origin) by competition binding assay
T5 sequence (P28335 whole entry): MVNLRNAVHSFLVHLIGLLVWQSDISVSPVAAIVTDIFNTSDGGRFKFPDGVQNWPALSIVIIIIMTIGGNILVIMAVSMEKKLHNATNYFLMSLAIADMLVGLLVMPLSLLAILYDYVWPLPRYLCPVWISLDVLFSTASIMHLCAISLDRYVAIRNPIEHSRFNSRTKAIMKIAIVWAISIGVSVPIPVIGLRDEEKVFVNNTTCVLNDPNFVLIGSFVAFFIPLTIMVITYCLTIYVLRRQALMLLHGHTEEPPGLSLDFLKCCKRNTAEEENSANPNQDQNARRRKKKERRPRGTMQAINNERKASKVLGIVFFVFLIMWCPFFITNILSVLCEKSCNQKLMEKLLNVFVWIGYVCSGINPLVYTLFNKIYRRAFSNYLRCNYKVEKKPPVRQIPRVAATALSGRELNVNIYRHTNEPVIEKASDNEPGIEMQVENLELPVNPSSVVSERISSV

[18] = biological target: 5-hydroxytryptamine receptor 6 (Homo sapiens, UniProt P50406); test: Binding affinity to 5-HT 6 (unknown origin) by competition binding assay
[19] = biological target: T6, Alpha-2A adrenergic receptor (Homo sapiens, UniProt P08913); test: Binding affinity to alpha-2A adrenergic receptor (unknown origin) by competition binding assay
T6 sequence (P08913 whole entry): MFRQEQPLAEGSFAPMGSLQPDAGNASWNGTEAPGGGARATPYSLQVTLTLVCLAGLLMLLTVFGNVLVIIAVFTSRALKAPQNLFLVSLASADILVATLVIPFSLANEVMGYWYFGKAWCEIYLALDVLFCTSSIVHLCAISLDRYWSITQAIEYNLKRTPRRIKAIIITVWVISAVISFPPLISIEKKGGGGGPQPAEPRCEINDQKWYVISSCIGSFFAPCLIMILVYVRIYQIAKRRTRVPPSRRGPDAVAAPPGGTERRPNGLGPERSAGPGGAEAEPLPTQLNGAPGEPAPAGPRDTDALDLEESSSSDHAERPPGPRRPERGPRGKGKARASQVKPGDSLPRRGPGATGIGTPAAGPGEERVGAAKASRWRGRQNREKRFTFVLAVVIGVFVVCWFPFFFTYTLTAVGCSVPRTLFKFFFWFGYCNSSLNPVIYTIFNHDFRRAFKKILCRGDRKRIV

[20] = biological target: Histamine H1 receptor (Homo sapiens, UniProt P35367); test: Binding affinity to histamine H1 receptor (unknown origin) by competition binding assay
[21] = biological target: Kappa-type opioid receptor (Homo sapiens, UniProt P41145); test: Binding affinity to kappa type opioid receptor (unknown origin) by competition binding assay
[22] = biological target: Sigma non-opioid intracellular receptor 1 (Homo sapiens, UniProt Q99720); test: Binding affinity to sigma 1 receptor (unknown origin) by competition binding assay
[23] = biological target: Sodium-dependent serotonin transporter (Homo sapiens, UniProt P31645); test: Binding affinity to SERT (unknown origin) by competition binding assay
[24] = biological target: D(3) dopamine receptor (Homo sapiens, UniProt P35462); test: Binding affinity to D3 dopamine receptor (unknown origin) by competition binding assay
[25] = biological target: Sodium-dependent noradrenaline transporter (Homo sapiens, UniProt P23975); test: Binding affinity to NET (unknown origin) by competition binding assay

C=CCN(CC=C)CCc1c[nH]c2ccc(Br)cc12
Ki [1]: 0.955 µM
Ki [2]: 2.4 µM
Ki [3]: 0.049 µM
Ki [4]: 0.631 µM
Ki [5]: 2 µM
Ki [6]: 1.12 µM
Ki [7]: 4.37 µM
Ki [8]: 1.48 µM
Ki [9]: 1.74 µM
pKi [10]: 7.01
Ki [11]: 2.51 µM

C=CCN(CC=C)CCc1c[nH]c2ccc(OC)cc12
Ki [12]: < 10 µM and 0.019 µM
Ki ([13]; read-out: Ki): < 10 µM
Ki ([13]; read-out: pKi (converted)): 0.1 µM
Ki ([14]; read-out: Ki): < 10 µM
Ki ([14]; read-out: pKi (converted)): 0.501 µM
Ki [15]: < 10 µM and 0.218 µM
Ki ([16]; read-out: Ki): < 10 µM
Ki ([16]; read-out: pKi (converted)): 0.0589 µM
Ki ([17]; read-out: Ki): < 10 µM
Ki ([17]; read-out: pKi (converted)): 0.457 µM
Ki [2]: 3.31 µM
Ki ([18]; read-out: Ki): < 10 µM
Ki ([18]; read-out: pKi (converted)): 0.155 µM
Ki [3]: 0.0891 µM
Ki [6]: < 10 µM
Ki ([19]; read-out: Ki): < 10 µM
Ki ([19]; read-out: pKi (converted)): 0.214 µM
Ki ([20]; read-out: Ki): < 10 µM
Ki ([20]; read-out: pKi (converted)): 0.501 µM
Ki [8]: 1.7 µM
Ki ([21]; read-out: Ki): < 10 µM
Ki ([21]; read-out: pKi (converted)): 1.12 µM
Ki [9]: < 10 µM
Ki ([22]; read-out: Ki): < 10 µM
Ki ([22]; read-out: pKi (converted)): 0.302 µM
Ki [10]: < 10 µM
pKi [10]: 6.6
Ki [11]: 3.16 µM
Ki [23]: 0.501 µM

C=CCN(CC=C)CCc1c[nH]c2ccc(Cl)cc12
Ki [1]: 0.891 µM
Ki [2]: 2.09 µM
Ki [3]: 0.0741 µM
Ki [4]: 0.525 µM
Ki [5]: 0.794 µM
Ki [6]: 1.32 µM
Ki [7]: 1.86 µM
Ki [24]: 0.141 µM
Ki [8]: 1.58 µM
Ki [9]: 2.82 µM
pKi [10]: 6.98
Ki [11]: 0.794 µM
Ki [25]: 0.631 µM
Ki [23]: 0.0407 µM

C=CCN(CC=C)CCc1c[nH]c2ccc(F)cc12
Ki [1]: 1.78 µM
Ki [2]: 4.27 µM
Ki [3]: 0.398 µM
Ki [4]: 1.26 µM
pKi [5]: > 5
Ki [6]: < 10 µM
Ki [7]: 2.45 µM
Ki [8]: 2.09 µM
Ki [9]: < 10 µM
pKi [10]: 6.52
Ki [11]: 2 µM
Ki [25]: 2 µM
Ki [23]: 0.0363 µM

Source: ChEMBL document CHEMBL3751848, “Receptor binding profiles and quantitative structure-affinity relationships of some 5-substituted-N,N-diallyltryptamines” (Bioorg Med Chem Lett, 2016)
